Laboratory results from article PMC12051620, “Molecular basis underlying the specificity of an antagonist AA92593 for mammalian melanopsins” (The Journal of Biological Chemistry, 2025).

Legend:
Assay in all cases: GsX GloSensor assay with Gsα/q11
Type in all cases: cell-based
[1] = target: T1, human melanopsin F94^2.61C mutant (Homo sapiens, UniProt Q9UHM6, F127C); conditions: 16.7 μM AA92593, COS-1 cells, difference not statistically significant
T1 construct: the C-terminal amino acid residues (94, 140, 200, 214, 296, and 308 residues); expressed in transfected cells; host or cells: COS-1
T1 sequence (Q9UHM6 1-384 F127C limits assumed): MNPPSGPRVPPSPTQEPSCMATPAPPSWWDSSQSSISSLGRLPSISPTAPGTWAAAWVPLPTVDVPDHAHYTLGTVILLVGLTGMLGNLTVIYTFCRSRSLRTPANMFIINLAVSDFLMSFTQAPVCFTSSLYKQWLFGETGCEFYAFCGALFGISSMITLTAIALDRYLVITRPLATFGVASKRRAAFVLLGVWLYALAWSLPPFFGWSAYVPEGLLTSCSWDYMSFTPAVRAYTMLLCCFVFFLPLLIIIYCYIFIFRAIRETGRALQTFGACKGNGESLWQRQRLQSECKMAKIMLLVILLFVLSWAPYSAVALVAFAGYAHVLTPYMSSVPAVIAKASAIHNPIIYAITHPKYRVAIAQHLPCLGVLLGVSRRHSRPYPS
From the text: (§1) We substituted the residues Phe-94^2.61, Ser-188^ECL2, and Ser-269^6.52 in human melanopsin (Fig. 2, A and B) and examined the inhibitory effect of AA92593 on these mutants. Substitution of these amino acid residues with the corresponding amino acids in non-mammalian-type melanopsins (F94^2.61C, S188^ECL2T, and S269^6.52A) reduced the inhibitory effect of AA92593 compared to its effect on WT (Fig. 2, C–E). […] The antagonistic effect of AA92593 was reduced by ∼21% and ∼24% in the S188^ECL2T and S269^6.52A mutants, respectively (Fig. 2, D, E, and G). […] The volume change in side chain would affect arrangement of the amino acid residues around AA92593 (see below).
(§2) For GloSensor assay, opsins, GloSensor assay sensor (coded by pGlo-22F), and NanoBiT-tagged G proteins were transiently expressed in COS-1 cells (kindly provided from Dr David Farrens, Oregon Health and Science University) using PEI as described previously ([24], [52]). For the GsX GloSensor assay ([12], [13]), each well of a 96-well assay plate (Corning) was transfected with 50 ng opsin plasmid, 16.7 ng G protein plasmid, 50 ng pGlo-22F plasmid (Promega), and 500 ng PEI in 25 μl Opti-mem and 75 μl Dulbecco's modified Eagle's medium (D-MEM). […] For GFP-fluorescence microscopy, a 35-mm cell culture dish (IWAKI) was transfected with 2 μg melanopsin-GFP plasmid and 8 μg PEI in 400 μl Opti-mem and 1.2 ml D-MEM. […]
(§3) The transfected COS-1 cells were incubated at 37 °C, 5% CO2 for 2 days, and the medium was aspirated and exchanged with 50 μl of HBSS (145 mM NaCl, 10 mM D-glucose, 5 mM KCl, 1 mM MgCl2, 1.7 mM CaCl2, 1.5 mM NaHCO3, 10 mM Hepes, pH 7.4), containing 33.3, 20, 10, 2, 0.2, 0.02, 0.002, or 0 μM AA92593, 0.5% dimetyl sulfoxide (DMSO), and 4% (vol/vol) GloSensor cAMP reagent stock solution. […] Then, the cells were incubated at room temperature for 1 h, and luminescence changes were monitored. After incubation of the cells with AA92593, luminescence measurement was interrupted, the plate was ejected, and the cells were added with 50 μl of HBSS containing 0.2 μM 9-cis-retinal. […] Luminescence was measured using GM-2000 or GM-3510 microplate reader (Promega). Luminescence level of each well was measured every 30 s with integration time of 0.6 to 0.9 s. To illuminate opsins, luminescence measurement was interrupted, the plate was ejected, and the plate was illuminated by white light with CN-160 LED video light (light intensity, ∼9 mW/cm^2) (NEEWER). […] After illumination, luminescence measurement was resumed. The measured luminescence levels were normalized to the level at the starting point (time = 0 min). […]

[2] = system: human melanopsin S188^ECL2T mutant; conditions: 16.7 μM AA92593, COS-1 cells
From the text: as §1, §2, §3

[3] = target: T2, human melanopsin S188^ECL2A mutant (Homo sapiens, UniProt Q9UHM6, S222A); conditions: 16.7 μM AA92593, COS-1 cells
T2 construct: expressed in transfected cells; host or cells: COS-1
T2 sequence (Q9UHM6 1-384 S222A limits assumed): as the sequence (Q9UHM6 1-384 F127C limits assumed) above, with C127F, S222A counted along it
From the text: as §1, §2, §3

[4] = system: human melanopsin S269^6.52A mutant; conditions: 16.7 μM AA92593, COS-1 cells
From the text: as §1, §2, §3

COc1ccc(S(=O)(=O)N2CCCCC2)cc1C [AA92593]
inhibitory effect of AA92593 compared to WT [1]: consistently weaker | reduction of the antagonistic effect of AA92593 vs WT [2]: ~21% | change in the effect of AA92593 vs WT [3]: did not induce a significant change | reduction of the antagonistic effect of AA92593 vs WT [4]: ~24%
